Measured values from article PMC8428568, “Discovery of re-purposed drugs that slow SARS-CoV-2 replication in human cells” (PLoS Pathogens, 2021).
Where a name gives a salt, the structure may show the parent alone. Read-outs that look alike come from different tables or passages of the source.

How the values were obtained:
[1] = tested on: SARS-CoV-2-ΔOrf7a-NLuc virus; test: microbe, parasite or virus in culture; format: cell-based; details: for activity at 10 µM: Severe acute respiratory syndrome coronavirus 2, Vero, 72 h, read-out: Mean relative luminescence (n=4); for activity at 10 µM / Mean relative luminescence (n=4): 1 = untreated, 0 = total inhibition
recombinant NLuc = format: biochemical; details: for Relative Recombinant NLUC: recombinant NLuc activity relative to DMSO; for Reads Counts per second (read 1) / Reads Counts per second (read 4) / Reads Counts per second (read 3) / Reads Counts per second (read 2): recombinant NLuc; for Reads Counts per second (read 1): first read column; for Reads Counts per second (read 4): fourth read column; for Reads Counts per second (read 3): third read column
[2] = Vero cells, 10 μM, 1 = DMSO-treated infected cells

Structure (SMILES)	activity at 10 µM [1]	PrestoBlue relative viability (Vero cells; [2])	% activity in Vero 100PFU screen [1]	PrestoBlue relative viability (Vero cells; African green monkey)	Relative Recombinant NLUC (recombinant NLuc)	Reads Counts per second (read 1) (recombinant NLuc)	Reads Counts per second (read 4) (recombinant NLuc)	Reads Counts per second (read 3) (recombinant NLuc)	Mean relative luminescence (n=4) [1]	Reads Counts per second (read 2) (recombinant NLuc)
CN(CCOc1ccc(CC2SC(=O)NC2=O)cc1)c1ccccn1 (stereo not shown) [Rosiglitazone]	0.183%	3.111								
COc1cccc2c1C(=O)c1c(O)c3c(c(O)c1C2=O)C[C@@](O)(C(=O)CO)C[C@@H]3O[C@H]1C[C@H](N)[C@@H](O)[C@H](C)O1 [Epirubicin HCl]	2.8%		3.44%	0.9127	0.8025	298948 Counts per second	310338 Counts per second	302560 Counts per second		
CCN1C[C@H](C)n2c(c(O)c3c(=O)n(Cc4ccc(F)c(Cl)c4)nc(C(=O)NC)c32)C1=O [MK-2048]		2.267							0.000491	
Oc1c(Cl)cc(Cl)c2cccnc12 [Chloroxine]	3.55%	0.5777	6.5%		0.9975	380665 Counts per second	374884 Counts per second	374596 Counts per second		
NCCC(O)(P(=O)([O-])O)P(=O)([O-])O.[Na+].[Na+] [Pamidronate Disodium]		0.5456	2.29%		0.8313	309519 Counts per second	313941 Counts per second	313471 Counts per second	0.01648	
C=C1/C(=C\C=C2/CCC[C@]3(C)[C@@H]([C@H](C)/C=C/[C@H](C)C(C)C)CC[C@@H]23)C[C@@H](O)C[C@@H]1O [Doxercalciferol]	5.56%	0.5418	8%		0.9613	361602 Counts per second	356613 Counts per second	370984 Counts per second		
CC[C@@H](C(=O)[C@@H](C)[C@@H](O)[C@H](C)[C@@H]1O[C@@H]([C@@H](CC)C(=O)O)CC[C@@H]1C)[C@H]1O[C@]2(C=C[C@@H](O)[C@]3(CC[C@@](C)([C@H]4CC[C@](O)(CC)[C@H](C)O4)O3)O2)[C@H](C)C[C@@H]1C [Salinomycin]	1.89%	0.6121	3.75%		0.9779	365050 Counts per second	367850 Counts per second	373342 Counts per second		
CC(=O)[C@]1(O)Cc2c(O)c3c(c(O)c2[C@@H](O[C@H]2C[C@H](N)[C@H](O)[C@H](C)O2)C1)C(=O)c1ccccc1C3=O [Idarubicin HCl]	1.49%	0.5406	2.14%		0.861	327538 Counts per second	318222 Counts per second	325691 Counts per second		
Oc1cc(Cl)ccc1Oc1ccc(Cl)cc1Cl [Triclosan]	10.6%	0.5234								
Cc1cc(Nc2cc(CN3CCOCC3)c3nc(C)c(Cc4ccc(Cl)cc4F)n3n2)n[nH]1 [LY2784544]	0.145%	0.7859								
Clc1ccccc1C(c1ccccc1)(c1ccccc1)n1ccnc1 [Clotrimazole]	13.9%	1.057								
CCc1ccc(CCOc2ccc(CC3SC(=O)NC3=O)cc2)nc1 (stereo not shown) [Pioglitazone HCl]	0.204%			3.485						
C#C[C@]1(O)CC[C@H]2[C@@H]3CCC4=CCCC[C@@H]4[C@H]3C(=C)C[C@@]21CC [Desogestrel]	14.5%	0.6657								
Cc1cnc(NC(=O)C2=C(O)c3ccccc3S(=O)(=O)N2C)s1 [Meloxicam (Mobic), Meloxicam]			178%		0.824	308460 Counts per second	312953 Counts per second	309204 Counts per second		
Nc1cccc2c1CN(C1CCC(=O)NC1=O)C2=O (stereo not shown) [Lenalidomide (CC-5013), Lenalidomide]	0.218%	2.058								
CC(C)(C)NC(=O)N[C@H](C(=O)N1C[C@H]2[C@@H]([C@H]1C(=O)NC(CC1CCC1)C(=O)C(N)=O)C2(C)C)C(C)(C)C (stereo partly shown) [Boceprevir]			178%		0.9177	341877 Counts per second	349417 Counts per second	346623 Counts per second		348889 Counts per second
CC(C)C(=O)OCC(=O)[C@@]12O[C@H](C3CCCCC3)O[C@@H]1C[C@H]1[C@@H]3CCC4=CC(=O)C=C[C@]4(C)[C@H]3[C@@H](O)C[C@@]12C [Ciclesonide]	14.1%	0.5125								
N[C@@H](CC(=O)N1CCn2c(nnc2C(F)(F)F)C1)Cc1cc(F)c(F)cc1F [Sitagliptin phosphate monohydrate]	0.0141%	2.5607								
N#CC[C@H](C1CCCC1)n1cc(-c2ncnc3[nH]ccc23)cn1 [Ruxolitinib (INCB018424), Ruxolitinib]			169%		0.8381	314540 Counts per second	316727 Counts per second	317488 Counts per second		
CC(C)(C)c1ccc(C(=O)CCCN2CCC(OC(c3ccccc3)c3ccccc3)CC2)cc1 [Ebastine]	0.793%					323732 Counts per second	326603 Counts per second	324560 Counts per second		
CC(C)c1cc(C(=O)N2Cc3ccc(CN4CCN(C)CC4)cc3C2)c(O)cc1O [AT13387]			191%		0.7978	289397 Counts per second	303901 Counts per second	309451 Counts per second		302902 Counts per second
COc1ccc(-n2nc(C(N)=O)c3c2C(=O)N(c2ccc(N4CCCCC4=O)cc2)CC3)cc1 [Apixaban]	0.124%	2.564								
CCCCCCCCCCCCCCCC[N+](C)(C)CCN(Cc1ccc(OC)cc1)c1ncccn1 [Thonzonium Bromide]	10.4%	0.6049								
Clc1ccc(CCC(Cn2ccnc2)Sc2c(Cl)cccc2Cl)cc1 (stereo not shown) [Butoconazole nitrate]	11.6%	0.6922								
O=c1c(-c2ccc(O)cc2)coc2cc(O)ccc12 [Daidzein]			161%		0.9154	339091 Counts per second	346126 Counts per second	350216 Counts per second		
OB1OCc2cc(F)ccc21 [AN-2690]			171%		0.8709	329173 Counts per second	324160 Counts per second	332892 Counts per second		329953 Counts per second
C[C@H]1CN(C[C@H](Cc2ccccc2)C(=O)NCC(=O)O)CC[C@@]1(C)c1cccc(O)c1 [Alvimopan]			169%		0.9202	338215 Counts per second	352328 Counts per second	350082 Counts per second		350063 Counts per second
NC(=O)c1ccc[n+]([C@@H]2O[C@H](COP(=O)([O-])OP(=O)(O)OC[C@H]3O[C@@H](n4cnc5c(N)ncnc54)[C@H](O)[C@@H]3O)[C@@H](O)[C@H]2O)c1 [NAD+]			164%		1.016	385544 Counts per second	376264 Counts per second	386401 Counts per second		
O=C(O)COCCN1CCN(C(c2ccccc2)c2ccc(Cl)cc2)CC1 (stereo not shown) [Cetirizine]			161%		0.4486	170134 Counts per second	171706 Counts per second	168670 Counts per second		
CCS(=O)(=O)N1CC(CC#N)(n2cc(-c3ncnc4[nH]ccc34)cn2)C1 [Baricitinib phosphate]			199%		0.9095	337511 Counts per second	349331 Counts per second	346435 Counts per second		341167 Counts per second
